Columns and labels:
MAO A = details: Figure 1; cited from earlier work
Huh7 cells [1] = assay: crystal violet cell viability assay on Huh7; type: cell-based, human; details: for concentration at which compound began to elicit toxicity: Huh7, crystal violet, 24 h, 1-300 μM tested; for toxicity compared with ASS234: Huh7, crystal violet (Figure 5C)
Description: (§1) The human hepatoma cell line (Huh7) was purchased from the American Type Culture Collection (ATCC, Manassas, VA, USA). The generation and characterization of the immortalized mouse hepatocyte cell line WTIIB has been previously described.[24] Cell viability was measured by the quantitative colorimetric MTT (3-[4,5-dimethylthiazol-2-yl]-2,5 diphenyl tetrazolium bromide) assay as previously described, and triarylmethane dye (violet) assay following the protocol adapted from Feoktistova et al.[25] After the incubation period with the compounds, MTT reagent was added to each well at a final concentration of 0.5 mg/mL. The plate was placed in a humidified incubator at 37 °C with 5% CO2 and 95% air for 2 h. Then, the precipitated formazan was dissolved with dimethyl sulfoxide (DMSO) and the colorimetric determination of MTT was measured in the spectrophotometer at 540 nm wavelength. Nontreated cells were considered controls and were taken as 100% viability.
(§2) To perform the crystal violet assay, wells were washed twice in PBS and cells were fixed with 100 μL of crystal violet (Sigma-Aldrich, Madrid, Spain) solution at 0.2% prepared in ethanol. Plates were incubated for 20 min at room temperature in a bench rocker. Next, wells were washed four times with distilled water, and then the plate was inverted gently to remove any remaining liquid. The plate was dried at room temperature for at least 2 h and attached cells were resuspended in SDS 1% for 30 min in a bench rocker. The optical density was measured in the spectrophotometer at 540 nm wavelength. Nontreated cells were considered controls and were taken as 100% viability.

[2] = metabolic stability, 2 h incubation with human liver microsomes, UPLC-MS; type: in vitro ADME
Description: The metabolic stability of a compound is an important factor that determines its pharmacokinetics and its potential as a drug candidate. Drugs are being metabolized in a variety of tissues including lungs, kidneys, or intestinal walls, but the liver plays an essential role in this process.
Then, the UPLC/MS analyses were done by using a Waters ACQUITY TQD system with the TQ Detector (Waters, Milford, MA, USA). The in silico prediction of the most probable sites of metabolism was done by ADMET Predictor, ver. […]
7.4) at 37 °C in the presence of NADPH Regeneration System (Promega, Madison, WI, USA). […]

[3] = precipitation during incubation in MTS assay; type: physicochemical; details: 72 h
Description: (A) Concentration–response on HEK-293 cells. (B) Concentration–response on HepG2 cells. Statistical significance was evaluated by one-way ANOVA, followed by Bonferroni’s comparison test (****p < 0.0001). DX, doxorubicin; CCCP, carbonyl cyanide 3-chlorophenyl […]. ASS234 precipitated at 100 μM during incubation.
(§3) Cytotoxicity and hepatotoxicity were estimated using the human embryonic kidney HEK-293 cell line (ATCC CRL-1573) and hepatoma HepG2 (ATCC HB-8065) cell line. The CellTiter 96 Aqueous Non-Radioactive Cell Proliferation Assay (MTS) was purchased from Promega (Madison, WI, USA) and performed according to the manufacturer’s protocol. […] The antiproliferative drug doxorubicin (DX) (1 μM) and mitochondrial toxin carbonyl cyanide 3-chlorophenyl-hydrazone (CCCP) (10 μM, only in hepatotoxicity assay) were used as positive controls (purchased from Sigma-Aldrich, St. Louis, MO, USA).

hBuChE = details: cited from earlier work
hAChE = details: cited from earlier work
WTIIB cells [4] = assay: MTT cell viability assay on WTIIB; type: cell-based, mouse; details: for concentration at which compound began to elicit toxicity: MTT, 24 h, 1-300 μM tested
Description: as §1

Huh7 cells [5] = assay: MTT cell viability assay on Huh7; type: cell-based, human; details: for concentration at which compound began to elicit toxicity: Huh7, MTT, 24 h, 1-300 μM tested; for toxicity compared with ASS234: Huh7, MTT (Figure 5A)
Description: as §1

WTIIB cells [6] = assay: crystal violet cell viability assay on WTIIB; type: cell-based, mouse; details: for concentration at which compound began to elicit toxicity: crystal violet, 24 h, 1-300 μM tested; for toxicity compared with ASS234: crystal violet (Figure 5D)
Description: as §1, §2

MAO B = details: Figure 1; cited from earlier work
hS1R = details: read-out: KihS1R; cited from earlier work
[7] = target: histamine H3 receptor (H3R); details: cited from earlier work
HEK-293 cells = assay: MTS cell viability assay on HEK-293; type: cell-based, human; details: HEK-293, MTS, 72 h; tested at 1, 10, 50, 100 μM
Description: as §3

[8] = test system: SH-SY5Y human neuroblastoma cells; set-up: method as in PMID 28861918; details: cited from earlier work
HepG2 cells = assay: MTS cell viability assay on HepG2; type: cell-based, human; details: 72 h, tested at 1, 10, 50, 100 μM
Description: as §3

For `C#CCN(C)Cc1cc2cc(OCCCC3CCN(Cc4ccccc4)CC3)ccc2n1C` [ASS234], the IC50 (MAO A) is listed as 5 nM, the “concentration at which compound began to elicit toxicity” value (“concentration at which compound began” for short) (Huh7 cells [1]) is listed as at least 30 µM and the “parent compound detected after incubation with HLMs” value (“parent compound detected” below) [2] is listed as “the compound was not detected”. For the same molecule, the “concentration at which compound precipitated during incubation” value [3] was 100 µM, the IC50 (hBuChE) was 1820 nM and the IC50 (hAChE) was 810 nM. For the same molecule, the “concentration at which compound began” value (WTIIB cells [4]) was at least 30 µM, the “concentration at which compound began” value (Huh7 cells [5]) was at least 30 µM and the “concentration at which compound began” value (WTIIB cells [6]) was at least 30 µM. The IC50 (MAO B) was 177 nM and the Ki (hS1R) was 3 nM.
In the case of `C#CCNCc1cc2cc(OCc3ccccc3)ccc2[nH]1` [PF9601N, N-(2-Propynyl)-2-(5-Benzyloxy-Indolyl) Methylamine], the IC50 (MAO A) is given as 1250 nM, the “parent compound detected” value [2] is given as 95% and the IC50 (MAO B) is given as 22 nM.
For `C#CCN(C)Cc1cc2cc(OCCCN3CCCCC3)ccc2n1C` [contilisant], the “toxicity compared with ASS234” value (Huh7 cells [1]; 30 μM) was “less toxic than ASS234”, the “toxicity compared with ASS234” value (Huh7 cells [1]; 300 μM) was “more toxic than ASS234” and the “concentration at which compound began” value (Huh7 cells [1]) was at least 30 µM. The Ki [7] was 11 nM, the “parent compound detected” value [2] was 97% and the IC50 (hBuChE) was 1690 nM. The “toxicity compared with ASS234” value (WTIIB cells [4]; 300 μM, MTT (Figure 5B)) was “more toxic than ASS234”, the “concentration at which compound began” value (WTIIB cells [4]) was 100 µM and the “concentration range not affecting cell viability” value (HEK-293 cells) was “up to 10 μM”. For the same molecule, the “toxicity compared with ASS234” value (Huh7 cells [5]; 30 μM) was “less toxic than ASS234”, the “toxicity compared with ASS234” value (Huh7 cells [5]; 300 μM) was “more toxic than ASS234” and the “concentration at which compound began” value (Huh7 cells [5]) was at least 30 µM. For the same molecule, the “concentration range not affecting cell viability” value (Huh7 cells [5]; Huh7, abstract, assay not specified (MTT / crystal violet)) was “up to 30 μM”, the “toxicity compared with ASS234” value (WTIIB cells [6]; 100 μM) was “less toxic than ASS234” and the “toxicity compared with ASS234” value (WTIIB cells [6]; 300 μM) was “more toxic than ASS234”. For the same molecule, the “concentration at which compound began” value (WTIIB cells [6]) was 100 µM, the “effective concentration used in neuroprotection experiments” value [8] was 0.3 to 3 µM and the IC50 (MAO B) was 78 nM. For the same molecule, the Ki (hS1R) was 65 nM and the “concentration range not affecting cell viability” value (HepG2 cells) was “up to 50 μM”.
In the case of `C#CCN(C)[C@H](C)Cc1ccccc1` [selegiline, reference compound], the “fraction of compound metabolized by HLMs” value [2] is reported as “about 54%”.

— publication PMC7677930, “In Vitro and In Silico ADME-Tox Profiling and Safety Significance of Multifunctional Monoamine Oxidase Inhibitors Targeting Neurodegenerative Diseases” (ACS Chemical Neuroscience, 2020)
